What is called IC50 is the concentration needed to halve the response being measured. High values mean lower potency, low ones higher potency.

Holding throughout (format): cell-based
Experiment [1] relates to NCI-H1781 cells (HER2-A775_G776insV-G776C). As to the kind of experiment: Cell proliferation assay (CellTiter-Glo), NCI-H1781. The settings on record: first inflexion of biphasic curve. How it is done: (§1) Besides Ba/F3s, two commercially available cell lines were also used. NCI-H1781 is a HER2 exon20 insertion cell line bearing HER2-A775_G776insV-G776C. A431 bears amplification of the wild-type EGFR gene.
(§2) Ba/F3 cells were plated at 1,000 cells/well (40 μL), or NCI-H1781 or A431 cells were plated at 2,000 cells/well (40 μL), in a 384-well plate for 1 day. Test compounds (40 nL) were then added in a 3-fold dilution series using the TECAN EV0200 liquid handler and incubated for 48 hours (“2 days”), 72 hours (“3 days”), or 48 hours followed by renewal of compound solutions and further incubation for 72 hours (“2 days/3 days”). The 72-hour assay was necessary for NCI-H1781 cells, which are slow-growing, and the resupply of fresh compounds on day 3 obviated the potential confounding effects arising from compound degradation in cell media over 72 hours. Plates were equilibrated at room temperature for 15 minutes followed by addition of 40 μL CellTiter-Glo reagent (Promega). Luminescence was measured on a plate reader. Half-maximal inhibitory concentration (IC50) was calculated from percent inhibition and inhibitor concentration using four-parameter logistic regression. […] In these cases, the regression curve was drawn only for the first inflexion to accurately measure on-target growth inhibitory effect.
(§3) Ba/F3, NCI-H1781, and A431 proliferation is driven by the oncogenes in the same way that cancer cell proliferation in humans is driven by the expression of equivalent oncogenes.
(In general: In ATP-based viability assays light output follows the ATP content of the culture.)

Experiment [2] deals with Ba/F3 HER2-YVMA cells (HER2-A775_G776insYVMA) (Homo sapiens, UniProt P04626, DUP772-775, cells depend on it). As to the kind of experiment: Cell proliferation assay (CellTiter-Glo), Ba/F3 HER2-YVMA. Particulars: read-out: Ba/F3 HER2-YVMA cell proliferation IC50. How it is done:
The gene encoding HER2-A775_G776insYVMA (“HER2-YVMA”) was synthesized at GeneRay, cloned into the retroviral construct pMSCV-puro (Biovector), and packaged into retroviral particles. The virus was used to infect Ba/F3 cells (RIKEN) at multiplicity of infection=1 or 10 for 1 day. Infected cells were rescued in media (RPMI-1640 with 10% fetal bovine serum and 1% streptomycin and penicillin) supplemented with mouse IL-3 (10 ng/mL) for 2 days, and stable cell lines were selected by IL-3 withdrawal and puromycin (0.8 μg/mL) for 7 days. Monoclones were selected by single-cell dilution in IL-3-free medium containing puromycin ([…]). Transformation of desired genes was confirmed by Sanger sequencing and western blot using the following antibody: HER2 (CST #2242).
as §2, §3

In experiment [3] the target is T1, wild-type EGFR (A431 cells) (Homo sapiens, UniProt P00533).
T1 construct: A431 bears amplification of the wild-type EGFR gene; endogenous in cells; host or cells: A431
Briefly: Cellular phosphorylation assay, pEGFR (phospho-EGFR Tyr1068 AlphaLISA) in A431. Particulars: compound incubated for 5 hours, EGF (30 ng/mL) for 15 minutes. How it is done: as §1
(§4) Ba/F3 cells were plated at 50,000 cells/well (40 μL), or NCI-H1781 cells or A431 cells were plated at 12,500 cells/well (40 μL), in a 384-well plate for 1 day. Test compounds (40 nL) were then added in a 3-fold dilution series using the TECAN EV0200 liquid handler and incubated for 5 hours. Only for pEGFR analysis in A431, the cells were briefly stimulated with EGF (30 ng/mL) for 15 minutes. Media were removed using Apricot Designs. Phosphoproteins were analyzed using the phospho-EGFR Tyr1068 AlphaLISA kit (“pEGFR”; PerkinElmer #ALSU-PEGFR-B10K;) phospho-ERK Thr202/Tyr204 AlphaLISA kit (“pERK”; PerkinElmer #ALSU-PERK-A10K) or the phospho-ErbB2 Tyr1221/1222 AlphaLISA kit (“pHER2”; PerkinElmer #ALSU-PEB2-A10K;) according to the manufacturer's instructions. Briefly, cells were lysed with lysis buffer (10 μL) containing protease-inhibitor and phosphatase-inhibitor cocktails. The lysates were transferred into a new optical plate, incubated with the acceptor mix (5 μL) for 1.5-2 hours at room temperature in darkness, and then mixed with the donor mix (5 μL) overnight in darkness. Fluorescence was measured on a plate reader using the appropriate AlphaLISA settings. Half-maximal inhibitory concentration (IC50) was calculated from percent inhibition and inhibitor concentration using four-parameter logistic regression. […]
(Alpha assays give light when donor and acceptor beads are brought close together.)

For experiment [4], the system named is A431 cells (amplification of the wild-type EGFR gene), phospho-ERK Thr202/Tyr204. Briefly: Cellular phosphorylation assay, pERK (phospho-ERK Thr202/Tyr204 AlphaLISA) in A431. The settings on record: Homo sapiens, A-431, compound incubated for 5 hours. How it is done: as §1, §4

T1 sequence (P00533 25-1210): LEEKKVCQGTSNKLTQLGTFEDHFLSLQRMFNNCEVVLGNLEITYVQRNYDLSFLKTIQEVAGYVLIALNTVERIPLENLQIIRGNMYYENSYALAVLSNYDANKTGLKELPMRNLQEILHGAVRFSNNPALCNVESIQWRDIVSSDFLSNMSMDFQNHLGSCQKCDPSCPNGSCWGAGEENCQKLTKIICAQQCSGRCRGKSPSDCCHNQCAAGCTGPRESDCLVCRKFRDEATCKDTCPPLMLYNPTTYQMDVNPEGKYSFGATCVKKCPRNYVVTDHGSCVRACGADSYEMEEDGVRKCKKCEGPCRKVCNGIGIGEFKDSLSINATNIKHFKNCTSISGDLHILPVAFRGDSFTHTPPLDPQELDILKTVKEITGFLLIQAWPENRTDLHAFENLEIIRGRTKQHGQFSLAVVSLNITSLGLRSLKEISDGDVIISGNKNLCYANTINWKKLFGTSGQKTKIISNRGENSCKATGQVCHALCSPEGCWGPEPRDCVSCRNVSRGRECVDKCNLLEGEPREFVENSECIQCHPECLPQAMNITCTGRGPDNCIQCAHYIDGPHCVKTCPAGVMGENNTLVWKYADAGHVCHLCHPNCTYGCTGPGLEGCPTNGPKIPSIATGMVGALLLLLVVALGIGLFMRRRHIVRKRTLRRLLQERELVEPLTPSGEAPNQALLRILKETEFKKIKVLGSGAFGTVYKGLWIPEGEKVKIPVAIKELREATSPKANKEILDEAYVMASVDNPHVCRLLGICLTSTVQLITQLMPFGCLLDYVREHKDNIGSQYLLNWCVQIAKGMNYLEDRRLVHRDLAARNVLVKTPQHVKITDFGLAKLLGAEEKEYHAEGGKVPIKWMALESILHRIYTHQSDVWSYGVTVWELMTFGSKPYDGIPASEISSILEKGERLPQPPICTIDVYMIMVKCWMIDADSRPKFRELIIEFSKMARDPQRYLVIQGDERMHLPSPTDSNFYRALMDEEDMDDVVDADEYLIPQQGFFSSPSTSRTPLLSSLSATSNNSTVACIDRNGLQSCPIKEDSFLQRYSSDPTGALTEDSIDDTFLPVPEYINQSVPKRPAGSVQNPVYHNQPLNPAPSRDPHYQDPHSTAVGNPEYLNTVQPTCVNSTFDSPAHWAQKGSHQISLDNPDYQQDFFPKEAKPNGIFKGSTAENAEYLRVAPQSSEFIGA
Sequence of Ba/F3 HER2-YVMA cells (HER2-A775_G776insYVMA) (P04626 with tags, fused parts or gaps DUP772-775): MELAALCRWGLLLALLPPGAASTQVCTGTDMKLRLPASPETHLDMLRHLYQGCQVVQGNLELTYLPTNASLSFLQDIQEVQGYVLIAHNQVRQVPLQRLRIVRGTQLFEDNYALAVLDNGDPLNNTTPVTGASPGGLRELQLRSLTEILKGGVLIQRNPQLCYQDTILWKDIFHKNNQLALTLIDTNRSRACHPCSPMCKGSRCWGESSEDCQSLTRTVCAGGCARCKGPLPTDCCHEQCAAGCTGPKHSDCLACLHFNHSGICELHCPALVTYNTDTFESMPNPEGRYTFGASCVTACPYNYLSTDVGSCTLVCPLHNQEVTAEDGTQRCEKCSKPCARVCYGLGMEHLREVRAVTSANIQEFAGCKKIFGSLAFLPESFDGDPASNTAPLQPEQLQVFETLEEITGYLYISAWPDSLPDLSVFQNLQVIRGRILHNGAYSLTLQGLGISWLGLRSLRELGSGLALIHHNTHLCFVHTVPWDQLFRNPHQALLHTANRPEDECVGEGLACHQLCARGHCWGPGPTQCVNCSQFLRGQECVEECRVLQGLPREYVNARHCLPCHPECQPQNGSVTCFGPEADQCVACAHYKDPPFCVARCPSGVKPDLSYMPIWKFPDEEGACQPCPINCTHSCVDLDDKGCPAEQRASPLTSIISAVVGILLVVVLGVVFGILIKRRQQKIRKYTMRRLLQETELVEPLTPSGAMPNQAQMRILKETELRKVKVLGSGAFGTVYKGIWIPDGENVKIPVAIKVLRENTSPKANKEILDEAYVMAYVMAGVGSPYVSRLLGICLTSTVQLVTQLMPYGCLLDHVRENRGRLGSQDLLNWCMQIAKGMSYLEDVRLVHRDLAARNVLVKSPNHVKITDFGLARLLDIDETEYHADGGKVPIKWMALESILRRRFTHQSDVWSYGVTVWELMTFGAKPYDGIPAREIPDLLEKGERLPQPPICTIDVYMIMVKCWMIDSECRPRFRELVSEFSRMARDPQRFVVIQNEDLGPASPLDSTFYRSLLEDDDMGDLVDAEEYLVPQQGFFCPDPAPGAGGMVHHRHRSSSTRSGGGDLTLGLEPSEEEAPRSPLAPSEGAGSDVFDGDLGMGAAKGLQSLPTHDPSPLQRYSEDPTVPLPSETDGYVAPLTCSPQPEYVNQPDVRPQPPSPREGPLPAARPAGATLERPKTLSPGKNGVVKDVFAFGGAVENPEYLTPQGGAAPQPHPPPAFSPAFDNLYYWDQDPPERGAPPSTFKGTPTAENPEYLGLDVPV

As to `C=CC(=O)N1CC=C(c2ccc3ncnc(Nc4cc(C)c(Oc5ccn6ncnc6c5)cc4F)c3n2)CC1` [Example 11], the IC50 is 100 to 500 nM in experiment [1] and not below 1000 nM in experiment [3]. The GI50 in experiment [2] is less than 100 nM.
In the case of `C=CC(=O)N1CCN(c2ccc3ncnc(Nc4ccc(Oc5ccn6ncnc6c5)c(C)c4)c3c2F)CC1` [Example 29], the IC50 in experiment [1] was less than 100 nM; in experiment [3], not below 1000 nM. In experiment [2], the GI50 was less than 100 nM.
With `C=CC(=O)N1CCN(c2ncc3ncnc(Nc4ccc(Oc5ccn6ncnc6c5)c(C)c4F)c3n2)C[C@H]1C` [Example 32], the values for the IC50 in experiment [1] and in experiment [4] were less than 100 nM and 500 to 1000 nM, respectively. For the same compound, in experiment [2], the GI50 was less than 100 nM.
`C=CC(=O)N1CCN(c2ncc3ncnc(Nc4cc(C)c(Oc5ccn6ncnc6c5)cc4F)c3n2)[C@H](C)C1` [Example 34]: the IC50 is 100 to 500 nM in experiment [1] and not below 1000 nM in experiment [3]. The GI50 in experiment [2] lay in the range of 100 to 500 nM.
In the case of `C=CC(=O)N1CC=C(c2ncc3ncnc(Nc4cc(C)c(Oc5ccn6ncnc6c5)cc4F)c3n2)CC1` [Example 38], the values for the IC50 in experiment [1] and in experiment [3] were 100 to 500 nM and not below 1000 nM, respectively. The GI50 in experiment [2] was 100 to 500 nM.
With `C=CC(=O)N1CC=C(c2ncc3ncnc(Nc4ccc(Oc5ccn6ncnc6c5)c(C)c4F)c3n2)C[C@@H]1C` [Example 42], the IC50 in experiment [1] was less than 100 nM; in experiment [3], not below 1000 nM. Also, the GI50 in experiment [2] was less than 100 nM.
`C=CC(=O)N1C[C@@H](C)N(c2ncc3ncnc(Nc4ccc(Oc5ccn6ncnc6c5)c(C)c4F)c3n2)C[C@H]1C` [Example 44]: the figures for the IC50 in experiment [1] and in experiment [3] were 100 to 500 nM and not below 1000 nM, respectively. The GI50 in experiment [2] is 100 to 500 nM.
As to `C=CC(=O)N1CCN(c2ncc3ncnc(Nc4ccc(Oc5ccn6ncnc6c5)c(Cl)c4F)c3n2)C[C@H]1C` [Example 82], the GI50 in experiment [2] is less than 100 nM. The values for the half-maximal inhibitory concentration (IC50) in experiment [4] and in experiment [3] were 100 to 500 nM and less than 100 nM, respectively.
For the compound `Cc1c(Oc2ccn3ncnc3c2)ccc(Nc2ncnc3cnc(C4=C[C@@H](C)N(C(=O)/C=C/CN(C)C)CC4)nc23)c1F` [Example 83], the GI50 in experiment [2] is less than 100 nM. The IC50 in experiment [4] and in experiment [3] was 100 to 500 nM each time.
Take `C=CC(=O)N1CCN(c2ncc3ncnc(Nc4ccc(Oc5ccc6c(c5)ncn6C)c(C)c4F)c3c2F)C[C@H]1C` [Example 84]: the GI50 in experiment [2] was less than 100 nM. Moreover, the IC50 in experiment [4] lay within 100 to 500 nM; in experiment [3] it was 500 to 1000 nM.
On to `C=CC(=O)N1CC=C(c2ccc3ncnc(Nc4ccc(Oc5ccn6ncnc6c5)c(C)c4)c3n2)C[C@@H]1C` [Example 85], for which the GI50 in experiment [2] is less than 100 nM. Also, the IC50 in experiment [4] and in experiment [3] was not below 1000 nM each time.
`C=CC(=O)N1CC=C(c2ccc3ncnc(Nc4ccc(Oc5ccn6ncnc6c5)c(C)c4)c3n2)C[C@H]1C` [Example 86]: in experiment [2], the GI50 was less than 100 nM. Further, the IC50 in experiment [4] and in experiment [3] was 100 to 500 nM throughout.
Turning to `C=CC(=O)N1CCC(c2ncc3ncnc(Nc4ccc(Oc5ccn6ncnc6c5)c(C)c4)c3n2)=C[C@@H]1C` [Example 94], in experiment [2], the GI50 is less than 100 nM. The IC50 was not below 1000 nM in experiment [4] and 500 to 1000 nM in experiment [3].
As to `C=CC(=O)N1CC=C(c2ncc3ncnc(Nc4ccc(Oc5ccn6ncnc6c5)c(C)c4)c3n2)C[C@@H]1C` [Example 95], in experiment [2], the GI50 was less than 100 nM. In addition, the IC50 in experiment [4] and in experiment [3] was not below 1000 nM each time.
With `C=CC(=O)N1CCC(c2ncc3ncnc(Nc4ccc(Oc5cc(C)n6ncnc6c5)c(C)c4F)c3n2)=C[C@@H]1C` [Example 96], the GI50 in experiment [2] lay in the range of 100 to 500 nM. Also, the IC50 in experiment [4] and in experiment [3] was not below 1000 nM throughout.
As to `C=CC(=O)N1CCN(c2ncc3ncnc(Nc4ccc(Oc5ccn6ncnc6c5)c(C)c4F)c3n2)[C@H](C)[C@H]1C` [Example 100], in experiment [2], the GI50 was less than 100 nM. Moreover, the IC50 is 100 to 500 nM in experiment [4] and not below 1000 nM in experiment [3].

These data come from US12037346B2, “Amino-substituted heteroaryls for treating cancers with EGFR mutations” (Nuvalent, Inc., priority 2021, dated 2024).
